Where a SMILES comes first, the peptide text is derived from it. [ ]: non-standard residue; d: D form. pGlu = O=C1CC[C@@H](C(=O)O)N1
Legend:
CEM-SS cells = test: Cytotoxicity (MTS cell viability) in the HIV-1 assay; details: CEM-SS cells, MTS; peptide 10 micrograms per ml
HIV-1IIIB = test: HIV-1 antiviral assay (CPE reduction, MTS) in CEM-SS cells; format: cell-based; details: peptide 10 micrograms per ml; 6 days post-infection
MRC-5 cells = test: Cytotoxicity (CellTiter 96 cell viability) in the HCMV assay; details: MRC-5 cells, 6 days incubation
Pseudomonas aeruginosa = format: cell-based; details: 5 micrograms per ml
in vitro = details: human, HepG2-2.2.15 cells
[1] = Cytotoxicity (MTS cell viability) in the HIV-1 assay; details: human, CEM-SS cells (uninfected, cells plus peptide only)
[2] = Cytotoxicity (CellTiter 96 cell viability) in the HCMV assay; details: human, MRC-5 cells (embryonal lung fibroblasts)
Streptococcus pneumoniae = format: cell-based; details: 5 micrograms per ml
MRSA = details: 5 micrograms per ml

Cc1cn([C@H]2C[C@H](N=[N+]=[N-])[C@@H](CO)O2)c(=O)[nH]c1=O [AZT, reference compound]
% Cell viability (CEM-SS cells): 97% | % CPE reduction in HIV-1 infected CEM-SS cells (HIV-1IIIB): 99%

CC(C)(C)NC(=O)[C@@H]1CN(Cc2cccnc2)CCN1C[C@@H](O)C[C@@H](Cc1ccccc1)C(=O)N[C@H]1c2ccccc2C[C@H]1O [Indinavir, indinavir]
% CPE reduction in HIV-1 infected CEM-SS cells (HIV-1IIIB): 100%

Nc1nc(O)c2ncn(COC(CO)CO)c2n1 [Ganciclovir, reference compound]
% Cell viability (MRC-5 cells): 100%

CSCC[C@H](NC(=O)[C@H](Cc1c[nH]c2ccccc12)NC(=O)CNC(=O)[C@H](Cc1ccc(O)cc1)NC(=O)[C@H](C)NC(=O)[C@H](CCC(=O)O)NC(=O)[C@H](CCC(=O)O)NC(=O)[C@H](CCC(=O)O)NC(=O)[C@H](CCC(=O)O)NC(=O)[C@H](CCC(=O)O)NC(=O)[C@H](CC(C)C)NC(=O)[C@H](Cc1c[nH]c2ccccc12)NC(=O)[C@@H]1CCCN1C(=O)CNC(=O)[C@H](CCC(N)=O)NC(=O)[C@H](CCCCN)NC(=O)[C@H](CCCCN)NC(=O)[C@H](CO)NC(=O)[C@@H]1CCCN1C(=O)[C@H](CC(=O)O)NC(=O)[C@H](C)NC(=O)[C@@H](NC(=O)[C@H](CC(C)C)NC(=O)[C@H](Cc1c[nH]cn1)NC(=O)[C@@H]1CCCN1C(=O)[C@@H]1CCCN1C(=O)CNC(=O)[C@H](CCC(N)=O)NC(=O)[C@@H]1CCCN1C(=O)CNC(=O)[C@H](CC(C)C)NC(=O)[C@@H]1CCC(=O)N1)C(C)C)C(=O)N[C@@H](CC(=O)O)C(=O)N[C@@H](Cc1ccccc1)C(N)=O [Big Gastrin I] ([pGlu]LGPQGPPHLVADPSKKQGPWLEEEEEAYGWMDF-NH2)
% inhibition (Pseudomonas aeruginosa): 0.0% | viability at 144 h, 10 micrograms per ml (in vitro): 88.7% | viability at 10 micrograms per ml [1]: 100% | viability at 144 h [2]: 100% | % inhibition (Streptococcus pneumoniae): 0.0% | % inhibition (MRSA): 0.0%
